From DBAASP
Values after ≈ are worked out from the molar mass of the structure shown.

How the values were obtained:
Test in all cases: ≥ marks a high value that may be exact or a test limit, other limits are often not marked, values filed in µg/mL are converted to µM
[1] = system: Candida albicans ATCC 2002
[2] = system: Staphylococcus aureus ATCC 25923
[3] = system: Pseudomonas aeruginosa CMCCB 10104
[4] = system: Escherichia coli ATCC 25922
[5] = system: Streptococcus mutans
[6] = system: Klebsiella pneumoniae ATCC 700603
[7] = system: Pseudomonas aeruginosa ATCC 9027
[8] = system: Bacillus subtilis ATCC 23857
[9] = system: Staphylococcus aureus NCTC 10788
[10] = system: Escherichia coli NCTC 10418
[11] = system: Candida albicans ATCC 10231

Row | SMILES | MIC [1] | MIC [2] | MIC [3] | MIC [4] | other results
1 | CSCC[C@H](NC(=O)[C@H](CC(N)=O)NC(=O)[C@H](CCCCN)NC(=O)[C@H](Cc1ccccc1)NC(=O)[C@@H](NC(=O)[C@H](CC(=O)O)NC(=O)[C@H](CC(C)C)NC(=O)[C@H](CC(C)C)NC(=O)CN)[C@@H](C)O)C(=O)N[C@@H](C)C(=O)N[C@@H](CC(C)C)C(=O)N[C@@H](CC(N)=O)C(=O)N[C@@H](C)C(=O)N[C@@H](C)C(=O)N[C@@H](CCCCN)C(=O)N[C@@H](CO)C(=O)N[C@@H](C)C(=O)NCC(=O)N[C@H](C(=O)N[C@@H](CO)C(=O)N[C@H](C(=O)N[C@@H](CC(C)C)C(=O)N[C@@H](CC(N)=O)C(=O)N[C@@H](C)C(=O)N[C@@H](CC(C)C)C(=O)N[C@@H](CO)C(=O)N[C@H]1CSSC[C@@H](C(=O)O)NC(=O)[C@H]([C@@H](C)O)NC(=O)[C@H](CCCCN)NC(=O)[C@H](CO)NC(=O)[C@H](CC(C)C)NC(=O)[C@H](CCCCN)NC1=O)C(C)C)C(C)C [GLLDTFKNMALNAAKSAGVSVLNALSCKLSKTC] | 1.96 µM (≈ 6.6 µg/mL) | 1.96 µM (≈ 6.6 µg/mL) | 1.96 µM (≈ 6.6 µg/mL) | 3.92 µM (≈ 13.2 µg/mL) | 
2 | CC[C@H](C)[C@H](N)C(=O)N[C@@H](CCCCN)C(=O)N[C@H](C(=O)N[C@@H](CC(C)C)C(=O)N[C@@H](CC(C)C)C(=O)N[C@@H](Cc1cnc[nH]1)C(=O)N[C@@H](Cc1ccccc1)C(=O)N[C@@H](Cc1ccccc1)C(=O)N[C@@H](CCC(N)=O)C(=O)N[C@@H](CCCN=C(N)N)C(=O)N[C@@H](Cc1ccccc1)C(N)=O)[C@@H](C)O [IKTLLHFFQRF] |  |  |  |  | MIC [5]: 30.8 µM (≈ 44.7 µg/mL)
3 | CC[C@H](C)[C@H](NC(=O)[C@H](CC(N)=O)NC(=O)[C@H](CCCCN)NC(=O)[C@H](CC(C)C)NC(=O)[C@H](CO)NC(=O)[C@H](CCC(N)=O)NC(=O)[C@H](CC(C)C)NC(=O)[C@@H](NC(=O)[C@@H](N)[C@@H](C)O)[C@@H](C)CC)C(=O)N[C@@H](Cc1ccccc1)C(=O)N[C@@H](CCCCN)C(=O)O [TILQSLKNIFK] |  |  |  |  | MIC [5]: ≥ 95.8 µM
4 | CC[C@H](C)[C@H](NC(=O)CN)C(=O)N[C@@H](Cc1ccccc1)C(=O)N[C@@H](CO)C(=O)N[C@@H](CCCCN)C(=O)N[C@H](C(=O)N[C@@H](CO)C(=O)NCC(=O)N[C@@H](CCCCN)C(=O)N[C@@H](C)C(=O)N[C@H](C(=O)N[C@@H](CCCCN)C(=O)N[C@@H](CC(N)=O)C(=O)N[C@@H](CC(C)C)C(=O)N[C@@H](Cc1ccccc1)C(=O)N[C@H](C(=O)N[C@@H](CCCCN)C(=O)NCC(=O)N[C@@H](C)C(=O)N[C@@H](CCC(=O)O)C(=O)N[C@@H](CC(N)=O)C(=O)N[C@H](C(=O)NCC(=O)N[C@@H](CCCCN)C(=O)N[C@@H](Cc1cnc[nH]1)C(=O)N[C@H](C(=O)NCC(=O)N[C@@H](CCSC)C(=O)N[C@@H](CC(=O)O)C(=O)N[C@H](C(=O)N[C@H](C(=O)N[C@@H](CCCN=C(N)N)C(=O)N[C@H](C(=O)NCC(=O)N[C@H](C(=O)N[C@@H](CC(=O)O)C(=O)N[C@H](C(=O)N[C@H](C(=O)NCC(=O)N[C@H]1CSSC[C@@H](C(=O)O)NC(=O)[C@H](CCC(=O)O)NC(=O)CNC(=O)[C@H](CCCCN)NC(=O)[C@H]([C@@H](C)CC)NC(=O)[C@H](CCCCN)NC1=O)C(C)C)C(C)C)[C@@H](C)CC)[C@@H](C)O)C(C)C)C(C)C)C(C)C)C(C)C)[C@@H](C)CC)[C@@H](C)CC)[C@@H](C)CC [GIFSKISGKAIKNLFIKGAENVGKHVGMDVVRTGIDVVGCKIKGEC] | 1.79 µM (≈ 8.6 µg/mL) | 1.79 µM (≈ 8.6 µg/mL) | 1.79 µM (≈ 8.6 µg/mL) | 1.79 µM (≈ 8.6 µg/mL) | 
5 | CC[C@H](C)[C@H](NC(=O)[C@H](C)NC(=O)[C@H](CCSC)NC(=O)[C@H](CC(N)=O)NC(=O)[C@H](CCCCN)NC(=O)[C@H](Cc1ccccc1)NC(=O)[C@@H](NC(=O)[C@H](CC(=O)O)NC(=O)[C@H](CC(C)C)NC(=O)[C@H](CC(C)C)NC(=O)CN)[C@@H](C)O)C(=O)N[C@@H](CC(N)=O)C(=O)N[C@@H](C)C(=O)N[C@@H](C)C(=O)N[C@@H](Cc1cnc[nH]1)C(=O)NCC(=O)N[C@@H](C)C(=O)NCC(=O)N[C@H](C(=O)N[C@@H](CO)C(=O)N[C@H](C(=O)N[C@@H](CC(C)C)C(=O)N[C@@H](CC(N)=O)C(=O)N[C@@H](C)C(=O)N[C@@H](CC(C)C)C(=O)N[C@@H](CO)C(=O)N[C@H]1CSSC[C@@H](C(=O)O)NC(=O)[C@H]([C@@H](C)O)NC(=O)[C@H](CCCCN)NC(=O)[C@H](CCCCN)NC(=O)[C@H](CC(C)C)NC(=O)[C@H](CCCCN)NC1=O)C(C)C)C(C)C [GLLDTFKNMAINAAHGAGVSVLNALSCKLKKTC] | 0.944 µM (≈ 3.2 µg/mL) | 1.86 µM (≈ 6.3 µg/mL) | 3.72 µM (≈ 12.6 µg/mL) | 1.86 µM (≈ 6.3 µg/mL) | 
6 | CC(C)C[C@H](NC(=O)[C@H](Cc1c[nH]c2ccccc12)NC(=O)[C@@H]1CCCN1C(=O)[C@@H]1CCCN1C(=O)[C@H](CC(C)C)NC(=O)[C@@H](N)CC(C)C)C(=O)N[C@@H](CCCN=C(N)N)C(=O)N1CCC[C@H]1C(=O)N[C@@H](CCCN=C(N)N)C(=O)N[C@@H](CC(N)=O)C(=O)NCC(=O)O [LLPPWLRPRNG] | ≥ 152 µM | > 152 µM | ≥ 152 µM | > 152 µM | 
7 | CC[C@H](C)[C@H](NC(=O)[C@H](CCCCN)NC(=O)[C@H](CCCCN)NC(=O)[C@H](C)NC(=O)[C@@H](NC(=O)[C@H](C)NC(=O)[C@H](CC(C)C)NC(=O)[C@H](CC(C)C)NC(=O)[C@H](C)NC(=O)[C@H](C)NC(=O)[C@H](CC(C)C)NC(=O)[C@H](CC(N)=O)NC(=O)[C@@H](N)CC(C)C)C(C)C)C(=O)N[C@@H](CC(C)C)C(N)=O [LNLAALLAVAKKIL] |  | 4 µM (≈ 5.8 µg/mL) |  | 8 µM (≈ 11.6 µg/mL) | MIC [6]: 32 µM (≈ 46.4 µg/mL); MIC [7]: 32 µM (≈ 46.4 µg/mL); MIC [8]: 16 µM (≈ 23.2 µg/mL)
8 | CC(C)C[C@H](NC(=O)[C@H](C)NC(=O)[C@H](CCCCN)NC(=O)[C@H](CCCCN)NC(=O)[C@H](C)NC(=O)[C@@H](NC(=O)[C@H](C)NC(=O)[C@H](CC(C)C)NC(=O)[C@H](CC(C)C)NC(=O)[C@H](C)NC(=O)[C@H](CCCCN)NC(=O)[C@H](CC(C)C)NC(=O)[C@H](CC(N)=O)NC(=O)[C@@H](N)CC(C)C)C(C)C)C(N)=O [LNLKALLAVAKKAL] |  | 32 µM (≈ 46.9 µg/mL) |  | 8 µM (≈ 11.7 µg/mL) | MIC [6]: 32 µM (≈ 46.9 µg/mL); MIC [7]: 32 µM (≈ 46.9 µg/mL); MIC [8]: 8 µM (≈ 11.7 µg/mL)
9 | CC[C@H](C)[C@@H]1NC(=O)[C@@H](NC(=O)[C@H](CCCN=C(N)N)NC(=O)[C@H](CO)NC(=O)[C@@H](N)[C@@H](C)O)CSSC[C@@H](C(=O)N[C@@H](CO)C(=O)O)NC(=O)[C@H](CCCCN)NC(=O)[C@H](CCCCN)NC(=O)[C@H](CCCN=C(N)N)NC(=O)[C@H](CCCN=C(N)N)NC(=O)[C@H](Cc2ccc(O)cc2)NC(=O)[C@H](Cc2ccccc2)NC1=O [TSRCIFYRRKKCS] | 18.2 µM (≈ 30 µg/mL) | > 72.8 µM | 18.2 µM (≈ 30 µg/mL) | 18.2 µM (≈ 30 µg/mL) | 
10 | CC[C@H](C)[C@H](NC(=O)[C@@H](NC(=O)[C@@H]1CCCN1C(=O)[C@H](CC(C)C)NC(=O)[C@@H](N)Cc1ccccc1)C(C)C)C(=O)N[C@@H](C)C(=O)NCC(=O)N[C@H](C(=O)N[C@@H](CC(C)C)C(=O)N[C@@H](CO)C(=O)N[C@@H](CCCCN)C(=O)N[C@@H](CC(C)C)C(=O)N[C@@H](Cc1ccccc1)C(N)=O)C(C)C [FLPVIAGVLSKLF] |  |  |  |  | MIC [9]: 10 µM (≈ 14 µg/mL); MIC [10]: ≥ 40 µM
11 | CC[C@H](C)[C@H](NC(=O)CN)C(=O)N[C@@H](CC(C)C)C(=O)N[C@@H](CO)C(=O)NCC(=O)N[C@@H](CC(C)C)C(=O)N[C@@H](CC(C)C)C(=O)NCC(=O)N[C@H](C(=O)NCC(=O)N[C@@H](CCCCN)C(=O)N[C@@H](CCSC)C(=O)N[C@@H](CC(C)C)C(=O)N[C@H](C(=O)N[C@H]1CSSC[C@@H](C(=O)O)NC(=O)[C@H](CC(C)C)NC(=O)CNC(=O)[C@H](CO)NC(=O)[C@H](CC(C)C)NC(=O)CNC1=O)C(C)C)C(C)C [GILSGLLGVGKMLVCGLSGLC] | 5.12 µM (≈ 10.2 µg/mL) | 10.2 µM (≈ 20.4 µg/mL) | 10.2 µM (≈ 20.4 µg/mL) | 5.12 µM (≈ 10.2 µg/mL) | 
12 | C[C@H](N)C(=O)N[C@@H](C)C(=O)N[C@@H](CCCN=C(N)N)C(=O)N[C@@H](CCCN=C(N)N)C(=O)N[C@@H](C)C(=O)N[C@@H](C)C(=O)N[C@@H](CCCN=C(N)N)C(=O)N[C@@H](CCCN=C(N)N)C(=O)N[C@@H](C)C(=O)N[C@@H](C)C(=O)N[C@@H](CCCN=C(N)N)C(=O)N[C@@H](CCCN=C(N)N)C(N)=O [AARRAARRAARR] |  |  |  |  | MIC [11]: > 362 µM; MIC [8]: ≥ 362 µM
13 | CC[C@H](C)[C@@H]1NC(=O)[C@H](C)NC(=O)[C@@H](NC(=O)[C@H](Cc2ccccc2)NC(=O)[C@@H](NC(=O)[C@@H](NC(=O)[C@@H]2CCCN2C(=O)[C@H](CC(C)C)NC(=O)[C@@H](NC(=O)[C@H](Cc2cnc[nH]2)NC(=O)[C@@H](NC(=O)[C@H](C)NC(=O)[C@@H](NC(=O)[C@H](CC(C)C)NC(=O)[C@H](CC(C)C)NC(=O)[C@@H](NC(=O)[C@H](C)NC(=O)[C@@H]2CCCN2C(=O)[C@H](CC(C)C)NC(=O)[C@@H](N)Cc2ccccc2)C(C)C)C(C)C)[C@@H](C)O)C(C)C)[C@@H](C)O)C(C)C)CSSC[C@@H](C(=O)O)NC(=O)[C@H](CCCCN)NC(=O)[C@H](CCCN=C(N)N)NC(=O)[C@H]([C@@H](C)O)NC1=O [FLPAVLLVATHVLPTVFCAITRKC] | 2.6 µM (≈ 6.79 µg/mL) | 2.6 µM (≈ 6.79 µg/mL) | 10.4 µM (≈ 27.2 µg/mL) | 1.3 µM (≈ 3.4 µg/mL) | 
